Results reported in paper PMC8648000 (Bioorganic & medicinal chemistry letters, 2021).
pEC50: −log10 of the molar value. One block for each compound: values may come before it.

What was measured:
human M4 (hM4) receptor = molecular target: T1, human M4 (hM4) receptor (Homo sapiens, UniProt P08173); type: cell-based; settings: for hM4 EC50: hM4/Gqi5-CHO cells, EC20 acetylcholine, n=1 experiment in triplicate; for fold increase in functional M4 potency versus 24e: compared with 24e
T1 sequence (P08173 1-479): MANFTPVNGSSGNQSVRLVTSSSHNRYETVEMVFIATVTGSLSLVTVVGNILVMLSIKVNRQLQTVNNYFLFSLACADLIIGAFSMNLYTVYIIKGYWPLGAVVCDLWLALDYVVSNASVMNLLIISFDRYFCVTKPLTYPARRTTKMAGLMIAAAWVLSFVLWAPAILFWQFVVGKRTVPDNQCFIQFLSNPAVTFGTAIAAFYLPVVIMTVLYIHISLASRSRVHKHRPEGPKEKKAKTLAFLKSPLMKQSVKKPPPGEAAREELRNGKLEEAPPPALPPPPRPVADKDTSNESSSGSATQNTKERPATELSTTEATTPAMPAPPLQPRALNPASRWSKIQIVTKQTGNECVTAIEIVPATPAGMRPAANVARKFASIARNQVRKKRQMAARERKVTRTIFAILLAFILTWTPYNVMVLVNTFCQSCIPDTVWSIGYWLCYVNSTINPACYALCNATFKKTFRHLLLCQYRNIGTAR

[1] = Rat microsomal intrinsic clearance and predicted hepatic clearance; type: in vitro ADME; settings: microsomes
[2] = Human microsomal intrinsic clearance and predicted hepatic clearance; type: in vitro ADME; settings: microsomes
Rat plasma:brain level = type: in vivo; settings: SD, brain and plasma, iv, 0.2 mg/kg; for Kp at […]: Kpuu, brain:plasma, SD Rat, 0.2 mg/kg IV

pEC50 (human M4 (hM4) receptor): > 6.46 | CLint scaled [1]: 741 mL/min/kg | CLint scaled [2]: 296 mL/min/kg | Kp uu at […] (Rat plasma:brain level): 0.27
SMILES: Cc1cc(C)c2c(n1)sc1c(N3CCC3)ncnc12 [16x]

fold decrease (loss) in hM4 potency versus 16m (human M4 (hM4) receptor; compared with 16m): 9.6 fold
SMILES: Cc1cc(C)c2c(n1)sc1c(OCc3ccc(C(C)(C)O)cc3)ncnc12 [compound 19]

CLint scaled [1]: 594 mL/min/kg | CLint scaled [2]: 129 mL/min/kg | Kp uu at […] (Rat plasma:brain level): 0.4 | Kp at […] (Rat plasma:brain level): 0.35 to 0.65
SMILES: Cc1cc(C)c2c(n1)sc1c(N3CC4(COC4)C3)ncnc12 [16y]

pEC50 (human M4 (hM4) receptor): > 6.46 | fold increase in hM4 potency versus 16m (human M4 (hM4) receptor; compared with 16m): ~ 2.8 fold | CLint scaled [1]: 334 mL/min/kg | CLint scaled [2]: 50 mL/min/kg | Kp uu at […] (Rat plasma:brain level): 1.16
SMILES: Cc1cc(C)c2c(n1)sc1c(NCc3ccc(C(C)(C)O)cc3)nccc12 [18b]

fold loss of hM4 functional potency versus 24d (human M4 (hM4) receptor; compared with 24d): ~ 40 fold
SMILES: Cc1cc(C)c2c(n1)sc1c(C3CCNCC3)ncnc12 [24e]

pEC50 (human M4 (hM4) receptor): > 6.46 | CLint scaled [1]: 176 mL/min/kg | CLint scaled [2]: 28 mL/min/kg | Kp uu at […] (Rat plasma:brain level): 0.21
SMILES: Cc1cc(C)c2c(n1)sc1c(NCc3ccc(S(C)(=O)=O)cc3)ncnc12 [16o]

fold increase in hM4 functional potency versus 24a (human M4 (hM4) receptor; compared with 24a): ~45 fold
SMILES: Cc1cc(C)c2c(n1)sc1c(C3CCOCC3)ncnc12 [24d]

pEC50 (human M4 (hM4) receptor): > 6.46 | CLint scaled [1]: 1900 mL/min/kg | CLint scaled [2]: 134 mL/min/kg | Kp uu at […] (Rat plasma:brain level): 0.65 | Kp at […] (Rat plasma:brain level): 0.35 to 0.65
SMILES: Cc1cc(C)c2c(n1)sc1c(N3CCCC3)ncnc12 [16w]

fold decrease (loss) in hM4 potency versus 16m (human M4 (hM4) receptor; compared with 16m): ~ 2.5 fold
SMILES: Cc1cc(C)c2c(n1)sc1c(NCc3ccc(C(C)(C)O)cc3F)ncnc12 [16n]

hM4 EC50 (human M4 (hM4) receptor): complete loss of activity
SMILES: Cc1cc(C)c2c(n1)oc1c(NCc3ccc(C(C)(C)O)cc3)ncnc12 [17e]

hM4 EC50 (human M4 (hM4) receptor): complete loss of activity
SMILES: COc1ccc(CNc2ncnc3c2oc2nc(C)cc(C)c23)cc1F [17d]

Continued, compound first:

SMILES: Cc1cc(C)c2c(n1)sc1c(N3CCCC3)nccc12 [18d]
pEC50 (human M4 (hM4) receptor): > 6.46 | CLint scaled [1]: 2100 mL/min/kg | CLint scaled [2]: 161 mL/min/kg | Kp uu at […] (Rat plasma:brain level): 4.87

SMILES: Cc1cc(C)c2c(n1)sc1c(C3CCN(c4cncc(F)c4)CC3)ncnc12 [compound 26]
hM4 EC50 (human M4 (hM4) receptor): complete loss of activity

SMILES: Cc1cc(C)c2c(n1)oc1c(NC3CN(c4ncc(C(F)(F)F)cn4)C3)ncnc12 [17f]
hM4 EC50 (human M4 (hM4) receptor): complete loss of activity

SMILES: Cc1cc(C)c2c(n1)sc1c(C3CCN(C(=O)C4(C)CC4)CC3)ncnc12 [28b]
fold increase in functional M4 potency versus 24e (human M4 (hM4) receptor): 26 fold | CLint scaled [1]: 367 mL/min/kg | CLint scaled [2]: 25 mL/min/kg | Kp uu at […] (Rat plasma:brain level): 0.35 | Kp at […] (Rat plasma:brain level): 0.35 to 0.65

SMILES: Cc1cc(C)c2c(n1)sc1c(C3CCN(CC4CC4)CC3)ncnc12 [compound 30]
hM4 EC50 (human M4 (hM4) receptor): complete loss of M4 potency

SMILES: Cc1cc(C)c2c(n1)sc1c(C3CCN(C(=O)C4CC4)CC3)ncnc12 [28a]
fold increase in functional M4 potency versus 24e (human M4 (hM4) receptor): ~ 10 fold

SMILES: Cc1cc(C)c2c(n1)sc1c(NC3CN(c4ncc(C(F)(F)F)cn4)C3)nccc12 [18c]
fold increase in hM4 potency versus 16p (human M4 (hM4) receptor; compared with 16p): ~ 44 fold

SMILES: Cc1cc(C)c2c(n1)sc1c(NC3CCC3)nccc12 [18g]
pEC50 (human M4 (hM4) receptor): > 6.46 | fold increase in functional hM4 potency versus 16v (human M4 (hM4) receptor; compared with 16v): ~ 4 fold | fold increase in human M4 activity versus parent compound VU0152100 (human M4 (hM4) receptor; compared with VU0152100): 6 fold | CLint scaled [1]: 3860 mL/min/kg | CLint scaled [2]: 345 mL/min/kg | Kp uu at […] (Rat plasma:brain level): 4.18

SMILES: Cc1cc(C)c2c(n1)oc1c(N3CCCC3)ncnc12 [17a]
hM4 EC50 (human M4 (hM4) receptor): complete loss of activity

SMILES: Cc1cc(C)c2c(n1)oc1c(NC3CCC3)ncnc12 [17c]
fold potency decrease versus 16v (human M4 (hM4) receptor; compared with 16v): 4.4 fold
